Assay results reported in PubChem BioAssay (NCI).
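All cell lines were grown in 96-well plates and treated with compound for 48 hours. GI50 is the concentration that inhibits growth by half. At the TGI there is no net growth.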

How the values were obtained:
Test in all cases: inhibition of tumour cell growth, NCI panel, 48 h
COLO 205 colon = test system: COLO 205 colon
HCT-116 colon = test system: HCT-116 colon
MDA-MB-231 breast = test system: MDA-MB-231 breast
NCI-H23 lung = test system: NCI-H23 lung
NCI-H460 lung = test system: NCI-H460 lung
OVCAR-4 ovarian = test system: OVCAR-4 ovarian
U251 CNS = test system: U251 CNS
UO-31 renal = test system: UO-31 renal
A549 NSCLC = test system: A549 NSCLC
CAKI-1 renal = test system: CAKI-1 renal

| SMILES | TGI (COLO 205 colon) | TGI (HCT-116 colon) | TGI (MDA-MB-231 breast) | TGI (NCI-H23 lung) | TGI (NCI-H460 lung) | TGI (OVCAR-4 ovarian) | TGI (U251 CNS) | TGI (UO-31 renal) | GI50 (A549 NSCLC) | TGI (A549 NSCLC) | GI50 (COLO 205 colon) | GI50 (HCT-116 colon) | GI50 (MDA-MB-231 breast) | GI50 (NCI-H23 lung) | GI50 (NCI-H460 lung) | GI50 (OVCAR-4 ovarian) | GI50 (U251 CNS) | GI50 (UO-31 renal) | TGI (CAKI-1 renal) | GI50 (CAKI-1 renal) |
| --- | --- | --- | --- | --- | --- | --- | --- | --- | --- | --- | --- | --- | --- | --- | --- | --- | --- | --- | --- | --- |
| CC1(C)C2C=CC1(C)C1(CC2)OCCO1 (centres undefined) | > 100 µM | > 100 µM | > 100 µM | > 100 µM | > 100 µM | > 100 µM | > 100 µM | > 100 µM |  |  |  |  |  |  |  |  |  |  |  |  |
| Cc1cc(N2CCCC2)nc(N(CCNc2ccnc3cc(Cl)ccc23)Cc2ccco2)n1 | 4.38 µM | > 100 µM | 23.7 µM | > 100 µM | > 100 µM | > 100 µM | 21.4 µM | 39.8 µM | 5.9 µM | > 100 µM | 1.8 µM | 1.91 µM | 3.14 µM | 2.75 µM | 2.99 µM | 3.22 µM | 3.15 µM | 2.58 µM |  |  |
| CC1(C)CC(=O)c2c(nc3ccc4ccccc4c3c2-c2ccc(NC(=O)CCCCCCCCC(=O)Nc3ccc(-c4c5c(nc6ccc7ccccc7c46)CC(C)(C)CC5=O)cc3)cc2)C1 | > 100 µM | > 100 µM | > 100 µM | > 100 µM | > 100 µM |  | > 100 µM | > 100 µM |  | > 100 µM |  |  |  |  |  |  |  |  | > 100 µM |  |
| COc1ccc(-c2c(C#N)c(S)n(NS(=O)(=O)c3ccc(C)cc3)c(=O)c2C#N)cc1 | 44.6 µM | 28 µM | 42.7 µM |  | > 100 µM | > 100 µM | > 100 µM |  |  | > 100 µM |  |  |  |  |  |  |  |  | > 100 µM |  |
| COc1ccc(C(=O)Cc2ccc(Br)cc2)cc1OC |  | > 100 µM |  | > 100 µM | > 100 µM | > 100 µM | > 100 µM | > 100 µM |  | > 100 µM |  |  |  |  |  |  |  |  | > 100 µM |  |
| C[C@H]1C[C@H]2[C@@H]3C(C)(C)O[C@]4(O)C(=O)[C@]5(O)[C@@H](C)CC[C@H]1[C@]25C(=O)[C@]34C | 38.6 µM | > 100 µM | > 100 µM | > 100 µM | > 100 µM |  | > 100 µM | > 100 µM |  | > 100 µM |  |  |  |  |  |  |  |  | > 100 µM |  |
| C/C(Nc1ccc(F)cc1)=C1/CCOC1=O | 47 µM | > 100 µM | > 100 µM | > 100 µM | > 100 µM | > 100 µM | > 100 µM | > 100 µM |  | > 100 µM |  |  |  |  |  |  |  |  |  |  |
| O=C1c2cc3c(cc2CC12Cc1ccc4c(c1C2=O)CCCC4)CCCC3 (centres undefined) |  | > 100 µM | > 100 µM | > 100 µM | > 100 µM | 62.8 µM | 60.5 µM | > 100 µM |  | > 100 µM |  |  |  |  |  |  |  |  | > 100 µM |  |
| S=C1SCN(Cc2ccco2)CN1c1ccc(Br)cc1 | 32 µM | 42.2 µM |  | 29.2 µM | 28.5 µM | 37.5 µM | 57.9 µM | 44.9 µM |  | 54.3 µM |  |  |  |  |  |  |  |  | 42.7 µM |  |
| CN(C(=O)c1ccco1)C(=S)N1CCN(c2ccccc2)CC1 | > 100 µM | > 100 µM |  | > 100 µM | > 100 µM | > 100 µM | > 100 µM | > 100 µM |  | > 100 µM |  |  |  |  |  |  |  |  | > 100 µM |  |
| COc1ccccc1NC(=O)CC(=O)N1N=C(C)C(N=Nc2ccc(C(=O)O)cc2)C1=O (centres undefined) | > 100 µM | > 100 µM | > 100 µM | > 100 µM |  | > 100 µM | > 100 µM | > 100 µM |  | > 100 µM |  |  |  |  |  |  |  |  | > 100 µM |  |
| O=C(c1cc(Cl)ccc1Cl)N1CCN(C(=O)c2cc(Cl)ccc2Cl)CC1 |  | > 100 µM | > 100 µM | > 100 µM | > 100 µM | > 100 µM | > 100 µM | > 100 µM |  | > 100 µM |  |  |  |  |  |  |  |  | > 100 µM |  |
| COc1ccc(-n2c(=O)n(C)c(=O)n2-c2ccc(OC)cc2)cc1 | > 100 µM | > 100 µM | > 100 µM | > 100 µM | > 100 µM |  | > 100 µM | > 100 µM |  | > 100 µM |  |  |  |  |  |  |  |  | > 100 µM |  |
| COc1ccc(-c2cc(-c3ccc(Nc4ccnc5cc(Cl)ccc45)cc3)[nH]c(=O)c2C#N)c2ccccc12 | 6.89 µM |  | 51.1 µM | > 91.6 µM | > 100 µM |  |  | 15.2 µM |  | > 52.9 µM |  |  |  |  |  |  |  |  | 48.4 µM |  |
| CN1CCN(CCCBr)CC1 | > 100 µM | > 100 µM | > 100 µM | > 100 µM | > 100 µM | > 100 µM | > 100 µM | > 100 µM |  | > 100 µM |  |  |  |  |  |  |  |  |  |  |
| CCCCCC(C)SC1(C(=O)OC)CC(OC(C)=O)C(NC(C)=O)C([C@H](OC(C)=O)[C@@H](COC(C)=O)OC(C)=O)O1 (some centres undefined) |  | > 100 µM | > 100 µM | > 100 µM | > 100 µM |  | > 100 µM | > 100 µM |  | > 100 µM |  |  |  |  |  |  |  |  | > 100 µM |  |
| Oc1c([Si](c2ccccc2)(c2ccccc2)c2ccccc2)cc2ccccc2c1-c1c(O)c([Si](c2ccccc2)(c2ccccc2)c2ccccc2)cc2ccccc12 | > 100 µM |  | > 100 µM | > 100 µM | > 100 µM | > 100 µM | > 100 µM | > 100 µM |  | > 100 µM |  |  |  |  |  |  |  |  | > 100 µM |  |
| C[C@@H]1CC[C@H]2C(C(O)CCCCC(O)C3=C(C(F)(F)F)O[C@@H]4O[C@@]5(C)CC[C@H]6[C@H](C)CC[C@@H]3[C@@]46OO5)=C(C(F)(F)F)O[C@@H]3O[C@@]4(C)CC[C@@H]1[C@]32OO4 (some centres undefined) | 29.4 µM | > 100 µM | > 100 µM |  | > 100 µM | > 100 µM | > 100 µM | > 100 µM | 8.87 µM | > 100 µM | 8.04 µM | 7.17 µM | 16.2 µM |  | 15.3 µM | 28.5 µM | 19.8 µM | 10.2 µM | > 100 µM | 5.72 µM |
| O=c1[nH]nc(-c2ccccc2)n1/N=C/c1cccnc1 |  | > 100 µM | > 100 µM | > 100 µM | > 100 µM |  | > 100 µM | > 100 µM |  | > 100 µM |  |  |  |  |  |  |  |  | 72.4 µM |  |
| CCOP(=O)(OCC)C1CC(n2cc(C)c(=O)[nH]c2=O)OC1CO (centres undefined) |  | > 100 µM | > 100 µM | > 100 µM | > 100 µM | > 100 µM | > 100 µM | > 100 µM |  | > 100 µM |  |  |  |  |  |  |  |  | > 100 µM |  |
| COc1ccc(C(=O)/C=C/c2c(Cl)c3c(c(OC)c2Cl)OCC(=O)N3)cc1 |  | 2.87 µM |  | 4.85 µM |  | 8.04 µM |  |  | 3.61 µM | > 100 µM |  | 1.43 µM |  | 2.23 µM |  | 2.56 µM |  |  |  |  |
